According to publication PMC12363342, “Investigating the N-terminal linker histone H1 subtypes as substrates for JmjC lysine demethylases” (RSC Chemical Biology, 2025):
Square brackets hold non-standard residues; d marks the D form. Ends that are not written are not given here. Lys(Me3) = C[N+](C)(C)CCCC[C@H](N)C(=O)O

Target: T1, KDM4E (Homo sapiens, UniProt B2RXH2)
T1 construct: KDM4DM1-L359,[39]; KDM4EM1-R336,[30]; His6 (N); made in house; host or cells: Escherichia coli
T1 sequence (B2RXH2 1-336): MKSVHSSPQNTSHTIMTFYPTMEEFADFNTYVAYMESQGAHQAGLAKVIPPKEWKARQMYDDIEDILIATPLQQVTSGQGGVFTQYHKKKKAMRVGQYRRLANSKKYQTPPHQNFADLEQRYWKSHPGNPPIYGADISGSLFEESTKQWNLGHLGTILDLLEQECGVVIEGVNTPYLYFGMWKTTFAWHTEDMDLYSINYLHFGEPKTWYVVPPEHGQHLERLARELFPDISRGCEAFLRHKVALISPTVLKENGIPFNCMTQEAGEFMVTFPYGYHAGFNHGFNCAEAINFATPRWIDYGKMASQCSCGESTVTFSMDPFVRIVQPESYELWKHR
Experiment: formaldehyde dehydrogenase (FDH)-coupled demethylation assay, KDM4E
Type: biochemical
Conditions: KDM4E (400 nM); for Km / kcat (KDM4E) / kcat/KM (KDM4E): FDH-coupled fluorescence assay, peptide 1–50 μM, HEPES pH 7.5; for Km / kcat (KDM4E): FAS 20 μM, LAA 200 μM, 2OG 200 μM, NAD+ 500 μM, FDH 2.0 μM, mean ± SEM (n = 3); for kcat/KM (KDM4E): catalytic efficiency; for substrate inhibition in Michaelis-Menten kinetics (KDM4E): FDH-coupled assay, Fig. S25
Protocol: Kinetic parameters were determined by recording the initial reaction rates of NADH production at varying histone peptide concentrations (Fig. S24 and S25).
Kinetic parameters for demethylation of N^ε-trimethylated H1 peptides by KDM4D and KDM4E (400 nM) measured using a formaldehyde dehydrogenase-coupled demethylation assay. H1 peptide (1–50 μM), FAS (20 μM), LAA (200 μM), 2OG (200 μM), NAD^+ (500 μM), KDM4 enzyme (0.8 μM) and FDH (2.0 μM) in HEPES buffer at pH 7.5.
Substrate Km values for KDM4 enzymes were determined using a reported formaldehyde dehydrogenase/NAD coupled enzyme assay that quantifies formaldehyde production.[30] In brief, DNA encoding for wild-type full-length formaldehyde dehydrogenase was synthesised (by GenScript) and cloned into the pET-28B vector. The resultant plasmid was then transformed into the Rosetta strain of Escherichia coli. Coupled enzyme-assays were carried out in black polystyrene 384-well non-binding surface microplates (Corning) and kinetic measurements were obtained using a PHERAstar FS plate reader (BMG Labtech) equipped with a 350 nm excitation and 460 nm emission optic module.[30] All steps were performed in the assay buffer (50 mM HEPES pH 7.5, 0.01% (v/v) Tween-20). Substrate mixtures were prepared freshly and contained FAS (20 μM), LAA (200 μM), 2OG (200 μM), NAD^+ (500 μM), and H1 peptide (1–50 μM); they were dispensed (25 μL final volume) in triplicate. Assays were initiated by plate reader injection of 25 μL of a mixture of KDM4 (0.8 μM) and formaldehyde dehydrogenase (FDH) (2.0 μM) in assay buffer (50 mM HEPES pH 7.5, 0.01% (v/v) Tween-20). Production of NADH was measured at 60 second intervals over 25 cycles. Kinetic parameters were determined from the reaction rate during the initial linear phase of formaldehyde production, and specific activities were calculated from a formaldehyde standard curve and fitted to the Michaelis–Menten equation using GraphPad Prism Version 5.0 (GraphPad software, La Jolla, CA, USA). Each assay was carried out in triplicate with independently prepared reaction mixtures.

Substance: KKKAAK[Lys(Me3)]AGGTPRKA [Peptide H1.2K26me3, 15-mer linker histone H1.2 residues 20-34 peptide, tri-methylated K26]
- Km: 5.22 ± 0.54 µM
- kcat (KDM4E): 0.0313 ± 0.0015 s⁻¹
- kcat/KM (KDM4E): 6000 M⁻¹ s⁻¹

Substance: KKKAA[Lys(Me3)]KAGGTPRKA [Peptide H1.2K25me3, 15-mer linker histone H1.2 residues 20-34 peptide, tri-methylated K25]
- substrate inhibition in Michaelis-Menten kinetics (KDM4E): evidence for substrate inhibition
- Km: 18.5 ± 6.87 µM
- kcat (KDM4E): 0.0767 ± 0.0218 s⁻¹
- kcat/KM (KDM4E): 4120 M⁻¹ s⁻¹

Substance: KKKAR[Lys(Me3)]SAGAAKRKA [Peptide H1.4K25me3, 15-mer linker histone H1.4 residues 20-34 peptide, tri-methylated K25]
- substrate inhibition in Michaelis-Menten kinetics (KDM4E): evidence for substrate inhibition
- Km: 11.5 ± 3.19 µM
- kcat (KDM4E): 0.0435 ± 0.00783 s⁻¹
- kcat/KM (KDM4E): 3770 M⁻¹ s⁻¹

Substance: KKKATK[Lys(Me3)]AAGAGAAK [Peptide H1.5K26me3, 15-mer linker histone H1.5 residues 20-34 peptide, tri-methylated K26]
- Km: 4.04 ± 0.51 µM
- kcat (KDM4E): 0.0218 ± 0.0013 s⁻¹
- kcat/KM (KDM4E): 5400 M⁻¹ s⁻¹

Substance: KKKA[Lys(Me3)]KAGATAGKRK [Peptide H1.3K24me3, 15-mer linker histone H1.3 residues 20-34 peptide, tri-methylated K24]
- Km: 6.45 ± 1.51 µM
- kcat (KDM4E): 0.0333 ± 0.00417 s⁻¹
- kcat/KM (KDM4E): 5170 M⁻¹ s⁻¹
